One compound from ChEMBL document CHEMBL1151840, “Synthetic oligoribonucleotides containing arabinonucleotides act as agonists of TLR7 and 8” (Bioorg Med Chem Lett, 2009) can be followed below.

Activity calls are given as the source filed them. The calls are words filed in the database; no cut-off is given here.

The species entered for data set [1] is Homo sapiens. As to the kind of experiment: Stimulation of immune response in human pDC assessed as induction of IL12 production at 150 ug/ml after 24 hrs. It counts as functional.
For data set [2], the species on record is Homo sapiens. As to the kind of experiment: Stimulation of immune response in human pDC assessed as induction of MIP1beta production at 150 ug/ml after 24 hrs. Type of data set: functional.
The target of data set [3] is T1, Toll-like receptor 8 (Homo sapiens) (UniProt Q9NR97).
T1 sequence (whole entry): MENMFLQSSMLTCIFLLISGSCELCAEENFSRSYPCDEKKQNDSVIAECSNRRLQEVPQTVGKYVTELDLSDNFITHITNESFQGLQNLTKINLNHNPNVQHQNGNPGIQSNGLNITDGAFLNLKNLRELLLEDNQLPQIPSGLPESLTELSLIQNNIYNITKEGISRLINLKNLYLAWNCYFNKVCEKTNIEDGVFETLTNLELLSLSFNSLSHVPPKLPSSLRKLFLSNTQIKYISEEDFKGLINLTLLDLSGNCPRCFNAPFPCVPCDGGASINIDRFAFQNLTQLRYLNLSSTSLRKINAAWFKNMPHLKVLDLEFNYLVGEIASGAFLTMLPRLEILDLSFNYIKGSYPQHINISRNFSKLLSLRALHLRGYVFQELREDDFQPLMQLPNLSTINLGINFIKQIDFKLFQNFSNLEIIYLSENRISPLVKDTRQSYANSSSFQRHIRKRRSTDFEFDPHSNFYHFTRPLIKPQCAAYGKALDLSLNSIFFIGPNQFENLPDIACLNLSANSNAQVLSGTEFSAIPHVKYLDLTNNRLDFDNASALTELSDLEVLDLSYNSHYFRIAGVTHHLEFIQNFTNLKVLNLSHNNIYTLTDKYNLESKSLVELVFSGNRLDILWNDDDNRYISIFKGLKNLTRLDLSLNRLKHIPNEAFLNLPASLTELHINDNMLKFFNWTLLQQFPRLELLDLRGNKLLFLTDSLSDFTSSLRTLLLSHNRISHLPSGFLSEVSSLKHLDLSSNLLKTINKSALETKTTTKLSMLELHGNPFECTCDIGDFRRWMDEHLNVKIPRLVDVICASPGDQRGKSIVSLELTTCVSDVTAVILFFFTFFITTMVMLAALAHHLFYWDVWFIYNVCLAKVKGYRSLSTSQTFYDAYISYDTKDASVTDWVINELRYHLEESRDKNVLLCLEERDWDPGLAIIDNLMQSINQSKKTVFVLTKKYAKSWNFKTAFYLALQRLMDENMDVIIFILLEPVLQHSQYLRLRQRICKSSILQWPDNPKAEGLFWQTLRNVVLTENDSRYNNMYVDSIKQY
The experiment in a line: Agonist activity at human TLR8 expressed in HEK293XL cells assessed as NF-kappaB activation after 18 hrs. It counts as functional, cell-based.

Data set [4] has as its system PBMC. The experiment in a line: Stimulation of immune response in human PBMC assessed as induction of MIP1beta production at 150 ug/ml after 24 hrs. Type of data set: functional, cell-based.
The subject of data set [5] is PBMC. As to the kind of experiment: Stimulation of immune response in human PBMC assessed as induction of IL12 production at 150 ug/ml after 24 hrs. It counts as functional, cell-based.
The subject of data set [6] is PBMC. As to the kind of experiment: Stimulation of immune response in human PBMC assessed as induction of IL2R level at 150 ug/ml after 24 hrs. Type of data set: functional, cell-based.
For data set [7], the system named is PBMC. As to the kind of experiment: Stimulation of immune response in human PBMC assessed as induction of MIP1alpha production at 150 ug/ml after 24 hrs. It counts as functional, cell-based.
Data set [8] deals with PBMC. The experiment in a line: Stimulation of immune response in human PBMC assessed as induction of MCP1 production at 150 ug/ml after 24 hrs. It counts as functional, cell-based.
Data set [9] deals with Mus musculus. The experiment in a line: Stimulation of immune response in C57BL/6 mouse assessed as induction of serum IL10 production at 50 mg/kg, sc after 2 hrs by luminex multiplex assay. Type of data set: functional, organism-based. Further details: dose 50 mg/kg.
Data set [10] deals with T2, Toll-like receptor 7 (Homo sapiens) (UniProt Q9NYK1).
T2 sequence (whole entry): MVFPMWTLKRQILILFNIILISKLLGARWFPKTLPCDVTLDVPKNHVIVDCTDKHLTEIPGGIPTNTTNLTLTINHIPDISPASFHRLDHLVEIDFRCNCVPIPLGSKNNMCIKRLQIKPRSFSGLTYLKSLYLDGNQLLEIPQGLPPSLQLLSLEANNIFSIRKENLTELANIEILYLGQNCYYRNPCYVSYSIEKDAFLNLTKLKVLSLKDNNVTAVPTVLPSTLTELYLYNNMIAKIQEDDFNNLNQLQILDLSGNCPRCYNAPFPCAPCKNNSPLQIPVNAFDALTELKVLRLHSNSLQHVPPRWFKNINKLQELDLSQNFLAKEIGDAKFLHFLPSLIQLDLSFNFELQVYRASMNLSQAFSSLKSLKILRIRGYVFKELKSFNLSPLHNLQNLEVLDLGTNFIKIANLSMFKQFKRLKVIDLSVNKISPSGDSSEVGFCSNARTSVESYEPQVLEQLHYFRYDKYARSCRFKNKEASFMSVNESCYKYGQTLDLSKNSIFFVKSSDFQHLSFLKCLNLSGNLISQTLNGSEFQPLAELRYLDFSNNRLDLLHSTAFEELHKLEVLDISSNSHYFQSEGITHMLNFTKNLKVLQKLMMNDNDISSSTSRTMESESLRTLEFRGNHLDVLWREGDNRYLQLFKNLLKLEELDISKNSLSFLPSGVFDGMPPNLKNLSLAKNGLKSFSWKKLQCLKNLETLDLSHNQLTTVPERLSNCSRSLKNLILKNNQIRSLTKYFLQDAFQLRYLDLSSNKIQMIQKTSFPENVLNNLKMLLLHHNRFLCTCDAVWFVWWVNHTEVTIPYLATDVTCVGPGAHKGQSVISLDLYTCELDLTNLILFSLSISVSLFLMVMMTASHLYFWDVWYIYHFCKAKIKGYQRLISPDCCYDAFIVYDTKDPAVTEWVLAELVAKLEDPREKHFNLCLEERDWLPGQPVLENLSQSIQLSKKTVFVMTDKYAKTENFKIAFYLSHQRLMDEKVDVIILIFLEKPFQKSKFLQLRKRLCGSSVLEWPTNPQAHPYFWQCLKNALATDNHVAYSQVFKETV
As to the kind of experiment: Agonist activity at human TLR7 expressed in HEK293XL cells assessed as NF-kappaB activation after 18 hrs. It counts as functional, cell-based.

The test system of data set [11] is Mus musculus. As to the kind of experiment: Stimulation of immune response in C57BL/6 mouse assessed as induction of serum chemokine KC production at 50 mg/kg, sc after 2 hrs by luminex multiplex assay. Type of data set: functional, organism-based. Further details: dose 50 mg/kg.
Data set [12] deals with Mus musculus. As to the kind of experiment: Stimulation of immune response in C57BL/6 mouse assessed as induction of serum IL12 production at 50 mg/kg, sc after 2 hrs by luminex multiplex assay. Also on record: dose 50 mg/kg. It counts as functional, organism-based.
For data set [13], the system named is PBMC. As to the kind of experiment: Stimulation of immune response in human PBMC assessed as induction of IL1-beta production at 150 ug/ml after 24 hrs. Type of data set: functional, cell-based.
The subject of data set [14] is PBMC. The experiment in a line: Stimulation of immune response in human PBMC assessed as induction of IL8 production at 150 ug/ml after 24 hrs. It counts as functional, cell-based.
Data set [15] can be described thus: Stability in human serum assessed as full-length compound remaining after 10 mins by anion-exchange HPLC. It counts as ADME, cell-free. The conditions noted are these: read-out: Stability.
The test system of data set [16] is PBMC. As to the kind of experiment: Stimulation of immune response in human PBMC assessed as induction of IL10 production at 150 ug/ml after 24 hrs. Type of data set: functional, cell-based.
The species entered for data set [17] is Homo sapiens. The experiment in a line: Stimulation of immune response in human pDC assessed as induction of TNFalpha production at 150 ug/ml after 24 hrs. Type of data set: functional.
The species entered for data set [18] is Homo sapiens. As to the kind of experiment: Stimulation of immune response in human pDC assessed as induction of MIP1alpha production at 150 ug/ml after 24 hrs. Type of data set: functional.
Data set [19] concerns PBMC. As to the kind of experiment: Stimulation of immune response in human PBMC assessed as induction of IFN-gamma production at 150 ug/ml after 24 hrs. It counts as functional, cell-based.
The subject of data set [20] is PBMC. The experiment in a line: Stimulation of immune response in human PBMC assessed as induction of RANTES production at 150 ug/ml after 24 hrs. Type of data set: functional, cell-based.
The species named for data set [21] is Homo sapiens. As to the kind of experiment: Stimulation of immune response in human pDC assessed as induction of IFN-gamma production at 150 ug/ml after 24 hrs. It counts as functional.
Data set [22] is filed under the species Homo sapiens. As to the kind of experiment: Stimulation of immune response in human pDC assessed as induction of IFNalpha production at 150 ug/ml after 24 hrs. It counts as functional.
Data set [23] has as its system PBMC. The experiment in a line: Stimulation of immune response in human PBMC assessed as induction of IFNalpha production at 150 ug/ml after 24 hrs. Type of data set: functional, cell-based.
The subject of data set [24] is PBMC. The experiment in a line: Stimulation of immune response in human PBMC assessed as induction of TNFalpha production at 150 ug/ml after 24 hrs. It counts as functional, cell-based.

Take `Nc1ccn([C@@H]2O[C@H](COP(=O)(S)O[C@H]3[C@@H](O)[C@H](n4ccc(=O)[nH]c4=O)O[C@@H]3COP(=O)(S)O[C@H]3[C@H](O)[C@H](n4cnc5c(=O)[nH]c(N)nc54)O[C@@H]3COP(=O)(S)O[C@H]3[C@H](O)[C@H](n4ccc(N)nc4=O)O[C@@H]3COP(=O)(S)O[C@H]3[C@@H](O)[C@H](n4ccc(=O)[nH]c4=O)O[C@@H]3COP(=O)(S)O[C@H]3[C@@H](O)[C@H](n4ccc(=O)[nH]c4=O)O[C@@H]3COP(=O)(S)O[C@H]3[C@@H](O)[C@H](n4cnc5c(=O)[nH]c(N)nc54)O[C@@H]3COP(=O)(S)O[C@H]3[C@@H](O)[C@H](n4ccc(=O)[nH]c4=O)O[C@@H]3COP(=O)(S)O[C@H]3[C@@H](O)[C@H](n4cnc5c(=O)[nH]c(N)nc54)O[C@@H]3COP(=O)(S)OCC(O)COP(=O)(S)O[C@H]3[C@@H](O)[C@H](n4cnc5c(=O)[nH]c(N)nc54)O[C@@H]3COP(=O)(S)O[C@H]3[C@@H](O)[C@H](n4ccc(=O)[nH]c4=O)O[C@@H]3COP(=O)(S)O[C@H]3[C@@H](O)[C@H](n4cnc5c(=O)[nH]c(N)nc54)O[C@@H]3COP(=O)(S)O[C@H]3[C@@H](O)[C@H](n4ccc(=O)[nH]c4=O)O[C@@H]3COP(=O)(S)O[C@H]3[C@@H](O)[C@H](n4ccc(=O)[nH]c4=O)O[C@@H]3COP(=O)(S)O[C@H]3[C@H](O)[C@H](n4ccc(N)nc4=O)O[C@@H]3COP(=O)(S)O[C@H]3[C@@H](O)[C@H](n4cnc5c(=O)[nH]c(N)nc54)O[C@@H]3COP(=O)(S)O[C@H]3[C@@H](O)[C@H](n4ccc(=O)[nH]c4=O)O[C@@H]3COP(=O)(S)O[C@H]3[C@H](O)[C@H](n4ccc(N)nc4=O)O[C@@H]3COP(=O)(S)O[C@H]3[C@@H](O)[C@H](n4cnc5c(=O)[nH]c(N)nc54)O[C@@H]3COP(=O)(S)O[C@H]3[C@@H](O)[C@H](n4ccc(=O)[nH]c4=O)O[C@@H]3CO)[C@@H](OP(=O)(S)OC[C@H]3O[C@@H](n4cnc5c(=O)[nH]c(N)nc54)[C@H](O)[C@@H]3OP(=O)(S)OC[C@H]3O[C@@H](n4ccc(=O)[nH]c4=O)[C@H](O)[C@@H]3OP(=O)(O)S)[C@@H]2O)c(=O)n1` (some centres undefined): the outcome in the data set filed under Homo sapiens [1], in the data set filed under Homo sapiens [2], in the data set on PBMC [4], with PBMC [5], in the data set on PBMC [6] and with PBMC [7] was Active. Moreover, the result in the data set on PBMC [8], with Mus musculus [9], in the data set with Mus musculus [11], in the data set with Mus musculus [12], in the data set with PBMC [13] and in the data set on PBMC [14] was Active. Besides, the outcome in the data set on PBMC [16], in the data set listed under Homo sapiens [17], in the data set filed under Homo sapiens [18], with PBMC [19], in the data set on PBMC [20] and in the data set listed under Homo sapiens [21] was Active. In addition, the result in the data set filed under Homo sapiens [22], with PBMC [23] and in the data set with PBMC [24] was Active. The Activity result in data set [3] and in data set [10] was “Dose-dependent effect” throughout. In data set [15], the remaining at 10 min came to 76%.
